Test results published in patent publication EP0804408B1, “NOVEL 4-SUBSTITUTED 2,6-DI-TERT-BUTYLPHENOL COMPOUNDS, PHARMACEUTICAL COMPOSITIONS CONTAINING SAME AND PREPARATION METHOD THEREFOR” (priority 1994, dated 1996).

System: VIH-1/LAI
Assay: Inactivation of HIV-1: infectious titre before/after treatment, titrated on MT4 cells (p24 antigen ELISA, day +10)
Assay type: cell-based
Excerpt: Afin d'évaluer l'efficacité d'AVF1, il a été procédé à la comparaison des titres infectieux de suspensions virales avant et après traitement par trois concentrations de AVF1 pendant trois temps de contact. A partir des résultats expérimentaux, il a été défini pour chaque concentration et chaque temps de contact testés, un facteur de […] du titre infectieux du VIH-1. Ce facteur de réduction exprimé en log 10 correspond au rapport du titre infectieux du virus non traité et du titre infectieux du virus traité par AVF1.
L'étude a été réalisée en deux étapes : • Traitement du VIH-1/LAI par trois concentrations d'AVF1 pendant 5, 30 et 60 minutes. • Evaluation des titres infectieux des échantillons obtenus avant et après traitement par AVF1 sur cellules MT4.
Le virus a été dilué au 1/10ème dans chacune des solutions de AVF1 (solution diluée à 2%, 1%, et 0,5%).
Le virus a été maintenu dans chacune de ces solutions pendant 5 minutes, 30 minutes et 60 minutes, à température ambiante puis immédiatement dilué en tampon NTE. Après dilution en tampn NTE, les échantillons ont été ultracentrifugés afin d'éliminer AVF1 et éviter ainsi sa toxicité sur les cellules MT4 utilisées pour le titrage du virus. Cette étape d'ultracentrifugation permet aussi de concentrer les particules virales résiduelles. Après centrifugation, chaque culot a été repris dans 1 ml de milieu de culture, filtré sur un filtre de 0,45 µm aliquoté et stocké à -80°C.
La même expérience a été réalisée deux fois.
La méthode de titrage du VIH-1 sur cellules MT4 est basée sur la détection d'une production virale par les cellules inoculées maintenues 10 jours en culture, mesurée par le dosage de l'antigène p24 VIH-1 dans le surnageant de culture.
Brièvement, les cellules MT4 sont inoculées avec des dilutions en série de virus non traité (contrôle positif) ou avec les échantillons expérimentaux (virus traités par AVF1).
Le VIH infecte les cellules, se multiplie, puis est libéré dans le surnageant de culture par bourgeonnement à la surface de la cellule. Afin de détecter la présence du virus, les surnageants de culture sont récupérés tous les 3 ou 4 jours et testés au jour +10 après l'infection quant à la présence de l'antigène p24 VIH-1.
La détection de l'antigène p24 VIH-1 est réalisée à l'aide d'une technique ELISA sandwich mettant en oeuvre la trousse ELAVIA AgI commercialisée par Diagnostic Pasteur, qui permet la détection de 50 pg d'antigène p24 par millilitre de surnageant.
Le principe de cette méthode est brièvement le suivant : l'antigène p24 libéré après la lyse des particules virales présentes dans le surnageant est complexé à des anticorps anti-VIH-1 immobilisés dans les puits des microplaques. L'antigène est alors révélé par anticorps polyclonaux anti-VIH-1 biotinylés, reconnus eux-mêmes par un conjugué streptavidine péroxydase. La présence de ce complexe est révélée par une réaction enzymatique après addition du substrat (H2O2) et du chromogène (OPD). Le produit de cette réaction est coloré et peut donc être détecté par mesure de la densité optique à 492 nm. La quantité de produit formé au cours de la réaction enzymatique est directement proportionnelle à la quantité d'antigène présente dans l'échantillon testé.
Les échantillons à tester ont été dilués ou non dans du milieu de culture. 1 ml d'échantillon non dilué, et 0,4 ml des dilutions suivantes ont été inoculés sur un culot de 1,2 10^6 cellules MT4. Après l'adsoption virale pendant 1 heure à 37°C, l'innoculum viral a été éliminé et les cellules lavées 3 fois en milieu de culture. Les cellules ont alors été resuspendues dans 4 ml de milieu de culture, distribuées dans 4 puits de plaque 24 puits et incubées à 37°C en présence de 5% de CO2.
Tous les 3 ou 4 jours, les surnageants de culture contenus dans chaque puits ont été prélevés et stockés à -80°C puis testés quant à la présence d'antigène p24 VIH-1.
Le titre infectieux est exprimé en "tissue Culture Infectious Dose 50" par millilitre d'échantillon (TCID 50/ml). […]

[1] = AVF1 0,5%, 5 minutes, 1ère expérience
[2] = AVF1 0,5%, 5 minutes, 2ème expérience
[3] = AVF1 0,5%, 30 minutes, 1ère expérience
[4] = AVF1 0,5%, 30 minutes, 2ème expérience
[5] = AVF1 0,5%, 60 minutes, 1ère expérience
[6] = AVF1 0,5%, 60 minutes, 2ème expérience
[7] = AVF1 1%, 5 minutes, 1ère expérience
[8] = AVF1 1%, 5 minutes, 2ème expérience
[9] = AVF1 1%, 30 minutes, 1ère expérience
[10] = AVF1 1%, 30 minutes, 2ème expérience
[11] = AVF1 1%, 60 minutes, 1ère expérience
[12] = AVF1 1%, 60 minutes, 2ème expérience
[13] = AVF1 2%, 5 minutes, 1ère expérience
[14] = AVF1 2%, 5 minutes, 2ème expérience
[15] = AVF1 2%, 30 minutes, 1ère expérience
[16] = AVF1 2%, 30 minutes, 2ème expérience
[17] = AVF1 2%, 60 minutes, 1ère expérience
[18] = AVF1 2%, 60 minutes, 2ème expérience

CC(C)(C)c1cc(C(=O)OCCOCCOCCOCCOCCOCCOCCOCCO)cc(C(C)(C)C)c1O [AVF1, 3,5-di-t-butyl-4-hydroxybenzoate d'octaoxyéthylèneglycol]
Facteur de réduction Log TCID50/ml [1]: > 6,9 Log TCID50/ml
Titre TCID 50/ml [1]: < 4 TCID 50/ml
Facteur de réduction Log TCID50/ml [2]: > 6,9 Log TCID50/ml
Titre TCID 50/ml [2]: < 4 TCID 50/ml
Facteur de réduction Log TCID50/ml [3]: > 6,9 Log TCID50/ml
Titre TCID 50/ml [3]: < 4 TCID 50/ml
Facteur de réduction Log TCID50/ml [4]: > 6,9 Log TCID50/ml
Titre TCID 50/ml [4]: < 4 TCID 50/ml
Facteur de réduction Log TCID50/ml [5]: > 6,9 Log TCID50/ml
Titre TCID 50/ml [5]: < 4 TCID 50/ml
Facteur de réduction Log TCID50/ml [6]: > 6,9 Log TCID50/ml
Titre TCID 50/ml [6]: < 4 TCID 50/ml
Facteur de réduction Log TCID50/ml [7]: > 6,9 Log TCID50/ml
Titre TCID 50/ml [7]: < 4 TCID 50/ml
Facteur de réduction Log TCID50/ml [8]: > 6,9 Log TCID50/ml
Titre TCID 50/ml [8]: < 4 TCID 50/ml
Facteur de réduction Log TCID50/ml [9]: > 6,9 Log TCID50/ml
Titre TCID 50/ml [9]: < 4 TCID 50/ml
Facteur de réduction Log TCID50/ml [10]: > 6,9 Log TCID50/ml
Titre TCID 50/ml [10]: < 4 TCID 50/ml
Facteur de réduction Log TCID50/ml [11]: > 6,9 Log TCID50/ml
Titre TCID 50/ml [11]: < 4 TCID 50/ml
Facteur de réduction Log TCID50/ml [12]: > 6,9 Log TCID50/ml
Titre TCID 50/ml [12]: < 4 TCID 50/ml
Facteur de réduction Log TCID50/ml [13]: > 6,9 Log TCID50/ml
Titre TCID 50/ml [13]: < 4 TCID 50/ml
Facteur de réduction Log TCID50/ml [14]: > 6,9 Log TCID50/ml
Titre TCID 50/ml [14]: < 4 TCID 50/ml
Facteur de réduction Log TCID50/ml [15]: > 6,9 Log TCID50/ml
Titre TCID 50/ml [15]: < 4 TCID 50/ml
Facteur de réduction Log TCID50/ml [16]: > 6,9 Log TCID50/ml
Titre TCID 50/ml [16]: < 4 TCID 50/ml
Facteur de réduction Log TCID50/ml [17]: > 6,9 Log TCID50/ml
Titre TCID 50/ml [17]: < 4 TCID 50/ml
Facteur de réduction Log TCID50/ml [18]: > 6,9 Log TCID50/ml
Titre TCID 50/ml [18]: < 4 TCID 50/ml
réduction du pouvoir infectieux (solution à 0,5% de AVF1, 5 minutes): ≥ 6,9 log TCID50/ml
particules infectieuses VIH-1 détectées (whatever the concentration (2%, 1%, 0,5%) and contact time (5, 30, 60 minutes)): Aucune particule infectieuse VIH-1 n'a été détectée
